Experimental data published in patent US11814364B2, “Pyridine N-oxide derivatives useful as factor XIa inhibitors” (Janssen Pharmaceutica NV, priority 2021, dated 2023).

target: human plasma kallikrein (Homo sapiens, UniProt P03952); assay: Kallikrein inhibition FLINT assay with quenched AMC peptide substrate Z-Gly-Pro-Arg-AMC (end point EP or kinetic KIN reads); format: biochemical; conditions: kinetic reads at 5 min intervals over 30 min; read-out: Kallikrein (KIN) IC50
Summary of the method: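 Enzyme and compound were preincubated 30 min before adding 50 μM AMC substrate in pH 7.5 Tris/NaCl/CaCl2/BSA/CHAPS buffer. AMC release was read at 30 min endpoint or every 5 min.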

Sequence of human plasma kallikrein (P03952 391-638 limits assumed): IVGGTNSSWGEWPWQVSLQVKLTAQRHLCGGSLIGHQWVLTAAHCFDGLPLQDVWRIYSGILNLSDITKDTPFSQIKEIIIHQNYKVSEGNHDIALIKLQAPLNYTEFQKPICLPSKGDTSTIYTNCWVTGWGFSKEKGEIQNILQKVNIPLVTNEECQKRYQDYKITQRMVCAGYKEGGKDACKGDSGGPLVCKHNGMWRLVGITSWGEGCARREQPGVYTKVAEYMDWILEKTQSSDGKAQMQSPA
Sequence of human plasma kallikrein (P03952 20-390 partner limits assumed): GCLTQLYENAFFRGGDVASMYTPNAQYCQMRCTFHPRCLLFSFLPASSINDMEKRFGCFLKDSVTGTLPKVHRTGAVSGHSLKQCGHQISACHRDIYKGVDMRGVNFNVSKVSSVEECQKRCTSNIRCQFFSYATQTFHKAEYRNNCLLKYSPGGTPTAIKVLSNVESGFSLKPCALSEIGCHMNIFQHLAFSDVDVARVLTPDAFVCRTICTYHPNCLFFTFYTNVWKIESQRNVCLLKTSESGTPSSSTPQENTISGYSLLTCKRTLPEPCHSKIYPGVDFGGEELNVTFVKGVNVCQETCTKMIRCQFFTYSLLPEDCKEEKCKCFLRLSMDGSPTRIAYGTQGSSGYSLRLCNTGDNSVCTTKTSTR

| IC50 [nM] | Compound |
| --- | --- |
| 73.9 | NC(=O)C1CC1CC(c1ccc(-c2c(-n3cnnn3)ccc(Cl)c2F)c[n+]1[O-])n1cc(-c2ccc(N)nc2F)cn1 (racemic) [Example P201] |
| 2.2 | Cn1cc(-c2cnn([C@H](Cc3ccn(C(F)F)n3)c3ccc(-c4c(-n5cc(C#N)nn5)ccc(Cl)c4F)c[n+]3[O-])c2)c(Cl)n1 [Example P852] |
| 58.9 | COc1cc(C(CC2CC2)n2cc(-c3ncnn3C(F)F)cn2)[n+]([O-])cc1-c1c(C#N)ccc(Cl)c1F (stereo not shown) [Example Q56] |
| 57.9 | COCc1ccnn1CC(c1ccc(-c2c(-n3cnnn3)ccc(Cl)c2F)c[n+]1[O-])n1cc(-c2ccc(N)nc2F)cn1 (stereo not shown) [Example P489] |
| 39.2 | [O-][n+]1cc(-c2c(-n3cc(Cl)nn3)ccc(Cl)c2F)ccc1[C@@H](CCOC(F)F)n1cc(-c2cnnn2C(F)F)cn1 [Example P668] |
| 252 | [O-][n+]1cc(-c2c(-n3cnnn3)ccc(Cl)c2F)ccc1C(CC1CC1)n1cc(-c2ccc3c(c2)OCCO3)cn1 (stereo not shown) [Example P271] |
| 26.2 | Cn1ncc(-c2cnn(C(Cc3ccc(F)cc3)c3ccc(-c4c(-n5cnnn5)ccc(Cl)c4F)c[n+]3[O-])c2)cc1=O (stereo not shown) [Example P116] |
| 132 | N#Cc1cc(-c2cnn(C(Cn3cc(F)cn3)c3ccc(-c4c(-n5cnnn5)ccc(Cl)c4F)c[n+]3[O-])c2)ccn1 (single isomer, unassigned) [Example P453] |
| 471 | [O-][n+]1cc(-c2c(-n3cnnn3)ccc(Cl)c2F)ccc1C(CC1CC1)n1cc(-c2scnc2C(F)(F)F)cn1 (stereo not shown) [Example P540] |
| 83.4 | CN(CC(c1ccc(-c2c(-n3cnnn3)ccc(Cl)c2F)c[n+]1[O-])n1cc(-c2ccncc2)cn1)C(=O)CC(=O)N1CCCCC1 (stereo not shown) [Example P322] |
| 28.5 | [O-][n+]1cc(-c2c(-n3cnnn3)ccc(Cl)c2F)ccc1C(Cn1cc(C(F)(F)F)cn1)n1cc(-c2ccnc(F)c2)cn1 (stereo not shown) [Example P331] |
| 305 | O=C(O)c1ccc(-c2cnn(C(CC3CC3)c3ccc(-c4c(C(F)F)ccc(Cl)c4F)c[n+]3[O-])c2)cc1 (stereo not shown) [Example Q16] |
| > 100 | Cn1nnc(F)c1-c1cnn(C(CC2CC2)c2ccc(-c3c(-n4cnnn4)ccc(Cl)c3F)c[n+]2[O-])c1 (stereo not shown) [Example P743] |
| 85.6 | Cc1nc(C(F)(F)F)sc1-c1cnn(C(CC2CC2)c2ccc(-c3c(-n4cnnn4)ccc(Cl)c3F)c[n+]2[O-])c1 (single isomer, unassigned) [Example P961] |
| 48.4 | [O-][n+]1ccc(-c2cnn(C(Cc3ccc(F)cc3)c3ccc(-c4c(OC(F)F)ccc(Cl)c4F)c[n+]3[O-])c2)cc1 (single isomer, unassigned) [Example Q19] |
| 79.8 | O=C(NC1CC1)c1ccc(-c2cnn(C(Cc3ccc(-c4ccccc4)cc3)c3ccc(-c4cc(Cl)ccc4-n4cnnn4)c[n+]3[O-])c2)cc1 (stereo not shown) [Example P87] |
| 22.8 | Cn1cc(C[C@H](c2ccc(-c3c(-n4cc(Cl)nn4)ccc(Cl)c3F)c[n+]2[O-])n2cc(-c3ccnc(C(F)(F)F)c3)cn2)nn1 [Example P739] |
| 24 | COC(=O)Nc1ccc(-c2cnn(C(CCOC(C)C)c3ccc(-c4c(-n5cnnn5)ccc(Cl)c4F)c[n+]3[O-])c2)cc1 (single isomer, unassigned) [Example P192] |
| 13.8 | [2H]C([2H])([2H])OCCC(c1ccc(-c2c(-n3cnnn3)ccc(Cl)c2F)c[n+]1[O-])n1cc(-c2ccc(NC(=O)OC)cc2)cn1 (stereo not shown) [Example P289] |
| 736 | Cn1nccc1-c1cnn(C(Cn2cc(F)cn2)c2ccc(-c3c(-n4cnnn4)ccc(Cl)c3F)c[n+]2[O-])c1 (single isomer, unassigned) [Example P501] |
| 134 | [O-][n+]1cc(-c2c(-n3cnnn3)ccc(Cl)c2F)ccc1C(Cn1cc(F)c(COC(F)F)n1)n1cc(-c2ccnc(C(F)(F)F)c2)cn1 (single isomer, unassigned) [Example P571] |
| 0.2 | NC(=O)c1ccc(-c2cnn(C(CCOC(F)F)c3ccc(-c4c(-n5cc(Cl)nn5)ccc(Cl)c4F)c[n+]3[O-])c2)cc1 (single isomer, unassigned) [Example P896] |
| 55.9 | CN(CC(c1ccc(-c2c(-n3cnnn3)ccc(Cl)c2F)c[n+]1[O-])n1cc(-c2ccnc(C(F)(F)F)c2)cn1)C(=O)OCc1ccccc1 (single isomer, unassigned) [Example P375] |
| 94.6 | NC(=O)c1ccnn1CC(c1ccc(-c2c(C(F)F)ccc(Cl)c2F)c[n+]1[O-])n1cc(-c2ccnc(C(F)(F)F)c2)cn1 (single isomer, unassigned) [Example Q28] |
| 2.9 | COC(=O)Nc1ccc(-c2cnn(C(Cc3cccc(OC)c3)c3ccc(-c4c(-n5cnnn5)ccc(Cl)c4F)c[n+]3[O-])c2)cc1 (single isomer, unassigned) [Example P207] |
| 635 | O=C(O)c1ccc(-c2cnn(C(CC3CC3C(=O)N3CCCC3)c3ccc(-c4cc(Cl)ccc4-n4cnnn4)c[n+]3[O-])c2)cc1 (stereo not shown) [Example P106] |
| > 274 | O=C(O)c1ccc(-c2cnn(C(Cc3ccn(C(F)F)n3)c3ccc(-c4c(C(F)F)ccc(Cl)c4F)c[n+]3[O-])c2)cc1 (single isomer, unassigned) [Example Q70] |
| 5.6 | [O-][n+]1cc(-c2c(-n3cnnn3)ccc(Cl)c2F)ccc1[C@@H](CCOC(F)F)n1cc(-c2ccnn2C(F)F)cn1 [Example P564] |

| IC50 [nM] | Compound |
| --- | --- |
| 247 | [O-][n+]1cc(-c2c(-n3cnnn3)ccc(Cl)c2F)ccc1[C@@H](CC1CC1)n1cc(-c2cn(C(F)F)nn2)cn1 [Example P594] |
| 496 | [O-][n+]1cc(-c2c(-n3cnnn3)ccc(Cl)c2F)ccc1C(CC1CC1)n1cc(-c2cnco2)cn1 (stereo not shown) [Example P455] |
| 159 | [O-][n+]1cc(-c2c(-n3cnnn3)ccc(Cl)c2F)ccc1C(Cn1cc(F)cn1)n1cc(-c2cc(C(F)(F)F)ncn2)cn1 (stereo not shown) [Example P468] |
| 4.2 | CS(=O)(=O)Nc1ccc(-c2cnn(C(Cc3ccccc3)c3ccc(-c4c(-n5cnnn5)ccc(Cl)c4F)c[n+]3[O-])c2)cc1 (stereo not shown) [Example P76] |
| 5.4 | O=C(NC1CC1)c1ccc(-c2cnn(C(Cc3ccc(F)cc3)c3ccc(-c4cc(Cl)ccc4-n4cnnn4)c[n+]3[O-])c2)cc1 (stereo not shown) [Example P55] |
| 249 | COc1cnc(F)c(-c2cnn(C(CC3CC3)c3ccc(-c4c(-n5cnnn5)ccc(Cl)c4F)c[n+]3[O-])c2)c1 (stereo not shown) [Example P75] |
| 87.1 | NC(=O)c1ccc(-c2cnn(C(CC(=O)N3CCCC3)c3ccc(-c4c(-n5cc(C(F)(F)F)nn5)ccc(Cl)c4F)c[n+]3[O-])c2)cc1F (stereo not shown) [Example P902] |
| 185 | COCc1ccnn1CC(c1ccc(-c2c(-n3cnnn3)ccc(Cl)c2F)c[n+]1[O-])n1cc(-c2ccnc(C(F)(F)F)c2)cn1 (stereo not shown) [Example P464] |
| 49.6 | COC(=O)Nc1ccc(-c2cnn(C(Cc3ccn(C)n3)c3ccc(-c4c(-n5cnnn5)ccc(Cl)c4F)c[n+]3[O-])c2)cc1 (single isomer, unassigned) [Example P329] |
| 380 | [O-][n+]1cc(-c2c(-n3cc(Cl)nn3)ccc(Cl)c2F)ccc1C(Cn1cccn1)n1cc(-c2cn(C(F)F)nn2)cn1 (single isomer, unassigned) [Example P664] |
| 287 | O=C(O)c1ccc(-c2cnn(C(CC(=O)N3CCCC3)c3ccc(-c4c(-n5cc(C(F)(F)F)nn5)ccc(Cl)c4F)c[n+]3[O-])c2)cc1F (stereo not shown) [Example P901] |
| 16.2 | [O-][n+]1cc(-c2c(-n3cnnn3)ccc(Cl)c2F)ccc1[C@@H](CCOC(F)F)n1cc(-c2cncn2C(F)F)cn1 [Example P771] |
| 54.3 | [O-][n+]1cc(-c2c(-n3cnnn3)ccc(Cl)c2F)ccc1C(Cc1ccc(C(F)(F)F)nc1)n1cc(-c2ccnn2C(F)F)cn1 (stereo not shown) [Example P753] |
| 10.8 | COc1ccc(CC(c2ccc(-c3c(-n4cnnn4)ccc(Cl)c3F)c[n+]2[O-])n2cc(-c3ccc(C(=O)NC4CC4)cc3)cn2)cc1 (stereo not shown) [Example P135] |
| 51.3 | O=C(c1cnn(CC(c2ccc(-c3c(-n4cnnn4)ccc(Cl)c3F)c[n+]2[O-])n2cc(-c3cc[n+]([O-])cc3)cn2)c1)N1CCCCC1 (stereo not shown) [Example P292] |
| 1.5 | [O-][n+]1cc(-c2c(-n3cnnn3)ccc(Cl)c2F)ccc1[C@@H](CCOC(F)F)n1cc(-c2c(F)cncc2Cl)cn1 [Example P583] |
| 86.3 | Cn1ncnc1-c1cnn([C@H](Cc2ccn(C(F)F)n2)c2ccc(-c3c(-n4cc(C(F)(F)F)nn4)ccc(Cl)c3F)c[n+]2[O-])c1 [Example P816] |
| 9.1 | NC(=O)c1cnn(CC(c2ccc(-c3c(-n4cnnn4)ccc(Cl)c3F)c[n+]2[O-])n2cc(-c3ccnc(C(F)(F)F)c3)cn2)c1 (stereo not shown) [Example P483] |
| 0.9 | [O-][n+]1cc(-c2c(-n3cnnn3)ccc(Cl)c2F)ccc1[C@@H](CCOC(F)F)n1cc(-c2scnc2Cl)cn1 [Example P582] |
| 77.8 | NC(=O)c1ccc(-c2cnn(C(CC3CC3)c3ccc(-c4c(-n5cc(C(F)(F)F)nn5)ccc(Cl)c4F)c[n+]3[O-])c2)cc1F (single isomer, unassigned) [Example P889] |
| 23.7 | [O-][n+]1cc(-c2c(-n3cnnn3)ccc(Cl)c2F)ccc1C(Cn1ccc(C(F)(F)F)n1)n1cc(-c2ccnc(F)c2)cn1 (stereo not shown) [Example P357] |
| ~138 | O=C(O)c1ccn(CC(c2ccc(-c3c(-n4cnnn4)ccc(Cl)c3F)c[n+]2[O-])n2cc(-c3ccncc3)cn2)n1 (stereo not shown) [Example P442] |
| 324 | CCOc1cc(C(CC2CC2)n2cc(-c3ncnn3C)cn2)[n+]([O-])cc1-c1cc(Cl)ccc1-n1cc(C(F)(F)F)nn1 (single isomer, unassigned) [Example P945] |
| 10.2 | Cn1ccc(CC(c2ccc(-c3c(-n4cnnn4)ccc(Cl)c3F)c[n+]2[O-])n2cc(-c3ccnc(C#N)c3)cn2)n1 (stereo not shown) [Example P359] |
| 27.6 | [O-][n+]1ccc(-c2cnn(C(Cn3cc(F)cn3)c3ccc(-c4c(-n5cnnn5)ccc(Cl)c4F)c[n+]3[O-])c2)cc1C(F)F (single isomer, unassigned) [Example P406] |
| 20.6 | COc1cc(C(CC2CC2)n2cc(-c3cnn(C)c(=O)c3)cn2)[n+]([O-])cc1-c1c(-n2cnnn2)ccc(Cl)c1F (stereo not shown) [Example P66] |
| 3 | COC(=O)Nc1ccc(-c2cnn(C(CCOC(F)F)c3ccc(-c4c(-n5cnnn5)ccc(Cl)c4F)c[n+]3[O-])c2)cc1 (stereo not shown) [Example P226] |
